Measured values reported in article PMC2895764 (Journal of molecular biology, 2010).

Assays:
NIH 3T3 cell = test: Reactivation of K-ras-mediated epigenetic silencing of Fas gene; format: cell-based
G9a-like protein (GLP) = conditions: cited from earlier work

SMILES: COc1cc2nc(N3CCCN(C)CC3)nc(NC3CCN(Cc4ccccc4)CC3)c2cc1OC [BIX-01294]
- reactivation (derepression) of Ras-mediated epigenetic silencing of Fas (NIH 3T3 cell): derepressed
- IC50 against GLP (G9a-like protein (GLP)): low μM range

SMILES: Nc1ncn([C@H]2C[C@H](O)[C@@H](CO)O2)c(=O)n1 [5-aza, 5-aza-2′-deoxycytidine]
- reactivation (derepression) of Ras-mediated epigenetic silencing of Fas (NIH 3T3 cell): derepressed
